Data on 20 compounds can be found in ChEMBL document CHEMBL1124435, “Evaluation of glycolamide esters and various other esters of aspirin as true aspirin prodrugs” (J Med Chem, 1989).

In brackets after ≈: the same amount, converted by molar mass.

Series [1] in a line: Partition coefficient (logP). Conditions: octanol/water.
Series [2] is filed under the species Homo sapiens. As to the kind of experiment: Percentage of aspirin formed during hydrolysis in undiluted human plasma at pH 7.4 at 37 degrees celsius.
A short description of series [3]: Observed pseudo-first order rate constant.
The nature of series [4]: in vitro. As to conditions: human, 10% human plasma.
Series [5] in a line: Observed second order rate constant.
For series [6], the species on record is Homo sapiens. The experiment in a line: Percentage of aspirin formed during hydrolysis in 10% human plasma at pH 7.4 at 37 degrees celsius.
The nature of series [7]: (§1) Observed first order rate constant.
Series [8] can be described thus: in vitro. As to conditions: human, 10% human plasma, pH 7.4.
Description: Michaelis-Menten constant(Km) for hydrolysis in 10% human plasma(pH 7.4) at 37 degrees celsius
Series [9] is described as follows: as §1. The series is classed as ADME.

One may read the solubility as the concentration that dissolves in the medium under given conditions. A higher solubility goes with much dissolved substance. Usually logP stands for a log measure of how a compound divides between an organic and an aqueous phase. Higher therefore signals a more lipophilic compound. As a reminder, the half-life is the time needed for the level to fall by half in the phase considered. Take `CC(=O)Oc1ccccc1C(=O)OC[S+](C)[O-]` (configuration not stated): the solubility in the series “physchem” worked out at 4.23 mg/mL (≈ 16.5 mM). The same compound came in with a logP in [1] of 0.11. The Aspirin formed in the series listed under Homo sapiens [2] was determined as 31%; in the series listed under Homo sapiens [6] it was 30%. In series [3], this compound returned a K obs of 0.207 min⁻¹. In the series “in vitro [4]”, the half-life was found to be 3.3 min. The same compound had a K2 in series [5] of 0.145 min⁻¹. This compound showed a K1 in series [7] of 0.0621 min⁻¹.
`CCOC(=O)CN(C)C(=O)COC(=O)c1ccccc1OC(C)=O` showed a solubility in “physchem” of 0.96 mg/mL (≈ 2.85 mM). In series [1], this compound had a logP of 1.67. This compound also showed a K obs in [3] of 0.34 min⁻¹. For the same compound, the half-life in “in vitro [4]” amounted to 2 min. Also, the K2 in [5] is 0.34 min⁻¹. The Aspirin formed in the series listed under Homo sapiens [6] was 0%.
On to `COC(=O)c1ccccc1OC(C)=O`, for which the solubility in the series “physchem” amounted to 2.81 mg/mL (≈ 14.5 mM). Besides, the logP in [1] was found to be 1.46. In series [3], this compound returned a K obs of 0.214 min⁻¹. In “in vitro [4]”, this compound gave a half-life of 3.2 min. The K2 in series [5] worked out at 0.214 min⁻¹. Moreover, the Aspirin formed in the series filed under Homo sapiens [6] is recorded as 0%.
Turning to `CCOC(=O)CNC(=O)COC(=O)c1ccccc1OC(C)=O`, the solubility in the series “physchem” stood at 4.32 mg/mL (≈ 13.4 mM). Further, the logP in series [1] is 0.99. Besides, in series [3], the K obs is 0.212 min⁻¹. This compound had a half-life in the series “in vitro [4]” of 3.3 min. The same compound displayed a K2 in series [5] of 0.212 min⁻¹. Also, the Aspirin formed in the series filed under Homo sapiens [6] is 0%.
In “physchem”, `CSCOC(=O)c1ccccc1OC(C)=O` showed a solubility of 0.55 mg/mL (≈ 2.29 mM). Besides, in series [1], the logP is 1.94. In [3], this compound came in with a K obs of 0.465 min⁻¹. The same compound returned a half-life in the series “in vitro [4]” of 1.5 min. The same compound showed a K2 in series [5] of 0.465 min⁻¹. Further, the Aspirin formed in the series filed under Homo sapiens [6] is given as 0%.
Turning to `CC(=O)Oc1ccccc1C(=O)OCC(=O)NCC(N)=O`, the log partition coefficient (logP) in series [1] is -0.43. Besides, in [3], the K obs was 0.136 min⁻¹. In the series “in vitro [4]”, this compound showed a half-life of 5.1 min. Further, the K2 in series [5] stood at 0.136 min⁻¹. For the same compound, in the series filed under Homo sapiens [6], the Aspirin formed is on record as 0%.
On to `CC(=O)Oc1ccccc1C(=O)OCC(=O)N(C1CCCCC1)C1CCCCC1`, for which the K obs in series [3] came out at 0.0335 min⁻¹. In “in vitro [4]”, this compound showed a half-life of 20.7 min. This compound had a K2 in [5] of 0.0335 min⁻¹. This compound also registered an Aspirin formed in the series filed under Homo sapiens [6] of 0%.
Usually Km stands for the concentration of substrate that gives half-maximal velocity. Consider `CC(=O)Oc1ccccc1C(=O)OCCN(C)C.Cl`, for which, in the series “in vitro [8]”, the Km stood at 49 µM. Moreover, the solubility in “physchem” was > 200 mg/mL. Also, the values for the Aspirin formed in the series filed under Homo sapiens [2] and in the series listed under Homo sapiens [6] were 8% and 6%, respectively. Besides, the K obs in series [3] was determined as 2.65 min⁻¹. In “in vitro [4]”, this compound yielded a half-life of 0.26 min. Moreover, in [5], the K2 came to 2.49 min⁻¹. The same compound had a K1 in [7] of 0.159 min⁻¹.
`CC(=O)OCOC(=O)c1ccccc1OC(C)=O` came in with a solubility in the series “physchem” of 2.43 mg/mL (≈ 9.63 mM). This compound also registered a logP in series [1] of 1.42. For the same compound, the Aspirin formed in the series filed under Homo sapiens [2] turned out to be 28%; in the series filed under Homo sapiens [6], 29%. Further, the K obs in series [3] came out at 0.395 min⁻¹. In “in vitro [4]”, this compound yielded a half-life of 1.8 min. This compound gave a K2 in series [5] of 0.28 min⁻¹. Besides, the K1 in series [7] is 0.115 min⁻¹.
`CC(=O)Oc1ccccc1C(=O)Oc1ccccc1C(=O)O` [DIPLOSALSALATE]: the K obs in [3] was 0.0094 min⁻¹. In the series “in vitro [4]”, this compound came in with a half-life of 73.7 min. In addition, in [5], the K2 turned out to be 0.0094 min⁻¹. The compound further had an Aspirin formed in the series filed under Homo sapiens [6] of 0%.
Take `CCOC(=O)COC(=O)c1ccccc1OC(C)=O`: the log partition coefficient (logP) in [1] came to 1.67. For the same compound, in [3], the K obs stood at 0.315 min⁻¹. The compound also had a half-life in the series “in vitro [4]” of 2.2 min. Besides, the K2 in series [5] stood at 0.315 min⁻¹. This compound gave an Aspirin formed in the series listed under Homo sapiens [6] of 0%.
`CC(=O)Nc1ccc(OC(=O)c2ccccc2OC(C)=O)cc1` [BENORILATE] came in with a solubility in the series “physchem” of 0.02 mg/mL (≈ 0.0638 mM). The compound further registered a logP in series [1] of 2.15. This compound also yielded a K obs in series [3] of 0.487 min⁻¹. Besides, in “in vitro [4]”, the half-life was 1.4 min. The same compound returned a K2 in [5] of 0.487 min⁻¹. This compound came in with an Aspirin formed in the series filed under Homo sapiens [6] of 0%.
For `CCCC(=O)OCOC(=O)c1ccccc1OC(C)=O`, the solubility in “physchem” is 0.35 mg/mL (≈ 1.25 mM). The K obs in series [3] is 0.723 min⁻¹. The compound also had a half-life in “in vitro [4]” of 1 min. The compound further yielded a K2 in [5] of 0.723 min⁻¹. The Aspirin formed in the series listed under Homo sapiens [6] is 0%.
`CCNC(=O)COC(=O)c1ccccc1OC(C)=O` yielded a solubility in the series “physchem” of 5.52 mg/mL (≈ 20.8 mM). The compound also gave a logP in [1] of 0.9. Besides, the K obs in series [3] amounted to 0.26 min⁻¹. In the series “in vitro [4]”, this compound registered a half-life of 2.7 min. In addition, the K2 in series [5] amounted to 0.26 min⁻¹. The compound further came in with an Aspirin formed in the series listed under Homo sapiens [6] of 0%.
`CC(=O)Oc1ccccc1C(=O)Oc1ccccc1`: the solubility in the series “physchem” was found to be 0.02 mg/mL (≈ 0.078 mM). Further, the logP in series [1] was 2.88. In [3], this compound had a K obs of 0.53 min⁻¹. Further, in “in vitro [4]”, the half-life was found to be 1.3 min. For the same compound, in [5], the K2 came to 0.53 min⁻¹. Besides, the Aspirin formed in the series listed under Homo sapiens [6] came out at 0%.
For `CC(=O)Oc1ccccc1C(=O)OCC(=O)N(C)CCO`, the logP in [1] amounted to 0.06. Further, the Aspirin formed in the series listed under Homo sapiens [2] was 40%; in the series listed under Homo sapiens [6], 38%. This compound returned a K obs in [3] of 0.184 min⁻¹. The compound further yielded a half-life in the series “in vitro [4]” of 3.8 min. This compound had a K2 in series [5] of 0.114 min⁻¹. Moreover, in [7], the K1 was determined as 0.0699 min⁻¹.
On to `CC(=O)Oc1ccccc1C(=O)OCC(=O)N(C(C)C)C(C)C`, for which, in series [1], the logP came out at 2.03. Besides, the Aspirin formed in the series listed under Homo sapiens [2] was found to be 21%; in the series listed under Homo sapiens [6] it was 20%. This compound also displayed a K obs in [3] of 0.0462 min⁻¹. In addition, in “in vitro [4]”, the half-life came out at 15 min. The same compound displayed a K2 in series [5] of 0.037 min⁻¹. In [7], the K1 is 0.0092 min⁻¹.
Consider `CC(=O)Oc1ccccc1C(=O)OCC(=O)N(C)C`, for which, in “in vitro [8]”, the Km was 196 µM. The same compound yielded a log partition coefficient (logP) in series [1] of 0.38. Moreover, the Aspirin formed in the series filed under Homo sapiens [2] was found to be 49%; in the series filed under Homo sapiens [6], 50%. This compound registered a K obs in series [3] of 0.209 min⁻¹. In addition, the half-life in “in vitro [4]” turned out to be 3.3 min. Also, in series [5], the K2 stood at 0.105 min⁻¹. Besides, the K1 in series [7] amounted to 0.105 min⁻¹.
Consider `CC(=O)Oc1ccccc1C(=O)OCC(=O)N(C)CC(N)=O`, for which the Km in “in vitro [8]” turned out to be 380 µM. Further, the log partition coefficient (logP) in series [1] was -0.46. The same compound gave a 10E2 K1 in series [9] of 3.42 min⁻¹. The compound further showed a K obs in [3] of 0.0924 min⁻¹. The compound further yielded a half-life in the series “in vitro [4]” of 7.5 min. Besides, in [5], the K2 amounted to 0.0582 min⁻¹. For the same compound, in the series listed under Homo sapiens [6], the Aspirin formed worked out at 37%.
`CC(=O)Oc1ccccc1C(=O)OCCN(C)C(C)=O` displayed a K obs in [3] of 0.205 min⁻¹. Besides, in the series “in vitro [4]”, the half-life stood at 3.4 min. Further, the K2 in [5] was determined as 0.205 min⁻¹. In the series filed under Homo sapiens [6], this compound gave an Aspirin formed of 0%.
